From paper PMC8802628, “Selective activation of PFKL suppresses the phagocytic oxidative burst” (Cell, 2021)
“Also recorded” adds a separate entry of the source. Blank lines part the entries; values can stand above or below the molecule they belong to.

Experiments:
[1] = biological target: T1, PFKL(K315R) (PFKL−pocket) (Homo sapiens, UniProt P17858, K315R); test: Recombinant PFKL−pocket activity assay; assay type: biochemical; details: for EC50: pH 7.5, 3.1 mM ATP, 4 mM F6P, mean ± SEM, read-out: EC50, activation of PFKL−pocket
T1 construct: made in house; host or cells: Sf9 insect cells (baculovirus)
T1 sequence (P17858 1-780 K315R): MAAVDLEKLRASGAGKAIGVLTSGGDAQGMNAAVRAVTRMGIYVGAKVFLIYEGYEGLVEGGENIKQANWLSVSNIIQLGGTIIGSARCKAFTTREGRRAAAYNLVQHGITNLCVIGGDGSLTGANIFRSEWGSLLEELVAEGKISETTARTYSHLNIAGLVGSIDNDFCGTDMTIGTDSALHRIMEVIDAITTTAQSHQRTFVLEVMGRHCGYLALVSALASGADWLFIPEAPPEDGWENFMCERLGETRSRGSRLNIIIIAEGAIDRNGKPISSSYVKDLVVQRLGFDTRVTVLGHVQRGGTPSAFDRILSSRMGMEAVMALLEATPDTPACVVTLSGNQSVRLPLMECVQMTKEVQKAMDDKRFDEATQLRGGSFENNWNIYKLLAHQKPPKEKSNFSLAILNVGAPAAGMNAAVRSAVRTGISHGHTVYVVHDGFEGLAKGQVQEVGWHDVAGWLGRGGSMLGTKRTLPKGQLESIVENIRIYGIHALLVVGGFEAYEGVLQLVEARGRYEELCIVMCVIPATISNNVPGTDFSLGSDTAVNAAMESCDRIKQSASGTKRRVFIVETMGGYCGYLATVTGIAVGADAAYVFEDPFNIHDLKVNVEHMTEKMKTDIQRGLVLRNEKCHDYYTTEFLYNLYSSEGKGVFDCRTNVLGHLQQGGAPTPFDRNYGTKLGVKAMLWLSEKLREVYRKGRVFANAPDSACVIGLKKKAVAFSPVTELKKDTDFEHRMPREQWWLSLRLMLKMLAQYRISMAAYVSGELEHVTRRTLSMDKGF
Text: Recombinant N-terminal His-tagged human PFKL (NP_002617), PFKM (NP_000280), and PFKP (NM_002627.4) were generated as described ([Webb et al., 2015], [2017]). Point mutants of PFK1 were generated using the QuikChange Lightning kit (Aligent).
His-tagged PFK1 was expressed and purified as described with slight modifications ([Webb et al., 2015], [2017]). Briefly, baculovirus was generated using the Bac-to-Bac Expression system (Invitrogen). PFK1 was expressed in 2-5 × 10^6 sf9 cells at a multiplicity of infection of two for 48 h. Cells were lysed in 20 mM HEPES, pH 7.5, 80 mM potassium phosphate, 1 mM 2-mercapentoethanol, 10% glycerol, 10 mM imidazole, and EDTA-free Protease Inhibitor Cocktail (Abcam) with a Dounce homogenizer. The soluble lysate was incubated with HisPur cobalt resin (ThermoFisher Scientific). The resin was washed with 5 bead volumes lysis buffer, 10 bead volumes lysis buffer containing 2 M NaCl, and 5 further bead volumes lysis buffer. PFK1 was eluted in lysis buffer containing 100 mM imidazole. Fractions containing protein were pooled, passed over a desalting column equilibrated in freezing buffer [20 mM HEPES pH 7.5, 1 mM DTT, 500 μM ammonium sulfate, 5% glycerol, 1 mM ATP, and 100 μM EDTA] and concentrated using an Amicon Ultracel-30K Centrifugal Filter Unit (MilliporeSigma). Protein was quantified using a Bradford Protein Assay kit (ThermoFisher Scientific), and aliquotes frozen in liquid nitrogen for storage at −80°C.
PFK1 activity was determined using the rate of FBP production via an auxiliary enzyme assay adapted to a 96-well format ([Brüser et al., 2012]; [Webb et al., 2015]). The auxiliary enzymes aldolase, triosephosphate isomerase, and glycerol phosphate dehydrogenase were purchased from MilliporeSigma as ammonium sulfate slurries and desalted using an Amicon Ultracel-10K Centrifugal Filter Unit. For assays containing FBP, the rate of ADP production was determined using the auxiliary enzymes pyruvate kinase (PK) and lactate dehydrogenase (LDH) (MilliporeSigma) in a buffer containing 250 μM phosphoenolpyruvic acid, […] NADH, 50 mM HEPES pH 7.5, 100 mM KCl, 1 mM DTT, and effector concentrations as described in the text. The temperature was equilibrated to 25°C for 5 min before initiating the reaction 10 mM MgCl2. Absorbance at 340 nm was measured using a Varioskan LUX Multimode microplate reader (ThermoFisher). Kinetic parameters were generated by nonlinear regression analysis using Prism (GraphPad Software) and are the mean of a minimum of three measurements from two independent preparations of protein. One unit of activity was defined as the amount of enzyme that catalyzed the formation of 1 μmol of fructose 1,6-bisphosphate per min at 25°C. Assays for PFKM were performed at pH 7.0 due to the pH-dependence of ATP inhibition ([Trivedi and Danforth, 1966]).

[2] = test system: human peripheral blood neutrophils; test: NETosis assay in human neutrophils (SYTOX Green, DNA area); assay type: cell-based
PMNs = test: ROS detection assay (ROS-Glo) in neutrophils; assay type: cell-based, human; details: for PMA-induced ROS production: 50 nM PMA
Protocol: ROS were measured using the ROS-Glo bioluminescent assay (Promega) for the direct detection of H2O2. Briefly, neutrophils (2 × 10^4) were plated in white 96-well plates (Greiner) in high glucose DMEM medium. Cells were cultured with DMSO vehicle, 0.5 μM NA-11, 5 μM LDC7559, 100 μM apocynin, or 200 μM thionicotinamide for 30 min, and then stimulated with 50 nM PMA or treated with 10 μg/mL zymosan beads, pre-opsonized in 20% serum for 30 min. Luminescence, after the addition of H2O2 substrate solution of 20 min, and then ROS-Glo detection solution for 20 min, was recorded on a plate reader (Envision).

PFK1 = PFK1 activity in PMN lysates; assay type: cell-based, human; details: for activation-induced reduction in PFK1 activity: neutrophils treated with PMA, LPS, or cholesterol crystals
Protocol: PFK1 activity assays from neutrophil lysates were modified from Abrantes et al., 2012. Briefly, neutrophils (10^7) were cultured with 0.5 μM NA-11 for 30 min, and then stimulated with 50 nM PMA, 5 μg/mL cholesterol crystals, 10 μg/mL LPS or 25 μM nigericin for 30 min. Cells were lysed in 10 mM PBS, 1% Triton X-100, and 1 x EDTA-free protease inhibitor cocktail on ice for 10 min. The soluble protein lysates were quantified by BCA assay (Pierce) and adjusted to 0.3125 mg/mL with lysis buffer. Lysate (80 μL) was mixed with 100 μL 2x enzyme cocktail solution (100 mM Tris-HCL pH7.4, 10 mM MgCl2, 0.5 mM ATP, 0.3 mM NADH, 1.35 units/mL Aldolase, 10 units/mL Triose phosphate isomerase, 4 units/mL glycerophosphate dehydrogenase, 20 mM ammonium sulfate) equilibrated to reach room temperature for 5 min. 20 μL of Fructose-6-phosphate (40 mM) was added and the reaction monitored for NADH decrease (absorbance at 340 nm) every 30 s for 30 min. Specific activity is in pmoles FBP per min per mg lysate.

[3] = PFKL−pocket, pH 7.5, 225 μM ATP

hF6P (Hill coefficient) [1, 3]: 3.26 ± 0.48
SMILES: O=C(CO)[C@@H](O)[C@H](O)[C@H](O)COP(=O)(O)O [F6P, fructose 6-phosphate]
Vmax,F6P [1, 3]: 14.68 ± 0.98 micromoles FBP per minute per milligram PFK1

SMILES: COc1ccccc1-c1cc2n(n1)Cc1ccc(NC(C)=O)cc1OC2 [LDC7559, reference compound]
NETosis in response to PMA ([2]; 10 μM compound, compared with DMSO vehicle): defective NETosis | PMA-induced ROS production (PMNs): inhibited PMA-induced ROS production | activation-induced reduction in PFK1 activity (PFK1): prevented

fold change of EC50,NA-5 of PFKL−pocket versus wild-type PFKL [1]: ~ 30 fold | EC50 [1]: 615 ± 138 nM
SMILES: CC(=O)Nc1ccc2c(c1)OCc1cc(-c3ccccc3)nn1C2 [NA-5]

SMILES: CC(=O)Nc1ccc2c(c1)OCc1cc(-c3ccccc3C#CCCCO)nn1C2 [NA-11]
time of addition after PMA up to which NETosis was inhibited ([2]; compound added after PMA-induced activation): up to 1 h | EC50 [1]: 167 ± 27.8 nM | PMA-induced ROS production (PMNs): inhibited PMA-induced ROS production; also recorded: markedly suppressed, but did not completely prevent, PMA-induced ROS | ROS production during phagocytosis of opsonized zymosan (PMNs; over 2 h): kept ROS production at basal levels | activation-induced reduction in PFK1 activity (PFK1): prevented | effect on PFK1 activity in resting neutrophils (PFK1; resting neutrophils): minimal
